Source: ChEMBL document CHEMBL2331118, “A facile three-component [3+2]-cycloaddition for the regioselective synthesis of highly functionalised dispiropyrrolidines acting as antimycobacterial agents” (Bioorg Med Chem Lett, 2013)
≈ marks a conversion by molar mass, not a printed value.

Key:
[1] = system: Vero; experiment: Cytotoxicity against african green monkey Vero cells after 72 hrs by MTT assay; assay type: cell-based; details: Chlorocebus sabaeus
[2] = system: Mycobacterium tuberculosis; experiment: Antitubercular activity against Mycobacterium tuberculosis H37Rv by microdilution alamar Blue broth assay; assay type: functional, organism-based
[3] = system: Mycobacterium tuberculosis; experiment: Antitubercular activity against Mycobacterium tuberculosis H37Rv by BacTiter-Gl Microbial Cell Viability assay; assay type: functional, organism-based
[4] = system: Mycobacterium tuberculosis; experiment: Ratio of pyrimethamine EC50 to compound EC50 for Mycobacterium tuberculosis H37Rv by BacTiter-Gl Microbial Cell Viability assay; assay type: functional
[5] = system: Mycobacterium tuberculosis; experiment: Ratio of cycloserine EC90 to compound EC90 for Mycobacterium tuberculosis H37Rv by BacTiter-Gl Microbial Cell Viability assay; assay type: functional
[6] = system: Mycobacterium tuberculosis; experiment: Ratio of cycloserine EC50 to compound EC50 for Mycobacterium tuberculosis H37Rv by BacTiter-Gl Microbial Cell Viability assay; assay type: functional
[7] = system: Mycobacterium tuberculosis; experiment: Ratio of cycloserine MIC to compound MIC for Mycobacterium tuberculosis H37Rv by BacTiter-Gl Microbial Cell Viability assay; assay type: functional
[8] = system: Mycobacterium tuberculosis; experiment: Ratio of pyrimethamine EC90 to compound EC90 for Mycobacterium tuberculosis H37Rv by BacTiter-Gl Microbial Cell Viability assay; assay type: functional
[9] = system: Mycobacterium tuberculosis; experiment: Ratio of pyrimethamine MIC to compound MIC for Mycobacterium tuberculosis H37Rv by BacTiter-Gl Microbial Cell Viability assay; assay type: functional

With `CN1C[C@H](c2ccc(C(F)(F)F)cc2)[C@]2(Cc3ccccc3C2=O)[C@]12C(=O)c1cccc3cccc2c13` the IC50 [1] was over 62.5 µg/mL, the EC50 [2] was 23.4 µM and the EC90 [2] was over 100 µM. It also gave an EC50 [3] of 3.21 µM, an EC90 [3] of 12.3 µM and an MIC [3] of 50 µM (≈ 24.9 µg/mL).
For `CN1C[C@H](c2ccc(OC(F)(F)F)cc2)[C@]2(Cc3ccccc3C2=O)[C@]12C(=O)c1cccc3cccc2c13`, the IC50 [1] was over 62.5 µg/mL, the EC50 [2] was 36.6 µM and the EC90 [2] was over 100 µM. It also gave an EC50 [3] of 8.51 µM, an EC90 [3] of 26.1 µM and an MIC [3] of 50 µM (≈ 25.7 µg/mL).
`CN1C[C@H](c2cncc(-c3ccc(F)cc3)c2)[C@]2(Cc3ccccc3C2=O)[C@]12C(=O)c1cccc3cccc2c13` was tested, and the IC50 [1] was over 62.5 µg/mL, the EC50 [2] was over 100 µM and the EC90 [2] was over 100 µM. For the same compound, the EC50 [3] was 64.5 µM and the EC90 [3] was over 100 µM.
Work on `CN1C[C@H](c2ccc(C(=O)O)cc2)[C@]2(Cc3ccccc3C2=O)[C@]12C(=O)c1cccc3cccc2c13` yielded an IC50 [1] of over 62.5 µg/mL, an EC50 [2] of 69.2 µM and an EC90 [2] of 99.7 µM. For the same compound, the MIC [2] was 100 µM (≈ 47.4 µg/mL), the EC50 [3] was 20.7 µM and the EC90 [3] was over 100 µM. It also gave an MIC [3] of 100 µM (≈ 47.4 µg/mL).
For `CN1C[C@H](c2cccc([N+](=O)[O-])c2)[C@]2(Cc3ccccc3C2=O)[C@]12C(=O)c1cccc3cccc2c13`, the IC50 [1] was over 62.5 µg/mL, the EC50 [2] was 77.5 µM and the EC90 [2] was over 100 µM. It also gave an EC50 [3] of 10.1 µM and an EC90 [3] of over 100 µM.
Compound `COc1ccc([C@H]2CN(C)[C@@]3(C(=O)c4cccc5cccc3c45)[C@@]23Cc2ccccc2C3=O)cc1` has an IC50 [1] of over 62.5 µg/mL, an EC50 [2] of 40.9 µM and an EC90 [2] of over 100 µM. It also gave an EC50 [3] of 13.4 µM, an EC90 [3] of 62.4 µM and an MIC [3] of 100 µM (≈ 46 µg/mL).
`CN1C[C@H](c2cccc3c2OCO3)[C@]2(Cc3ccccc3C2=O)[C@]12C(=O)c1cccc3cccc2c13` was tested, and the IC50 [1] was over 62.5 µg/mL, the EC50 [2] was 63.8 µM and the EC90 [2] was over 100 µM. For the same compound, the EC50 [3] was 11.5 µM, the EC90 [3] was over 100 µM and the MIC [3] was 100 µM (≈ 47.4 µg/mL).
Work on `CN(C)c1ccc([C@H]2CN(C)[C@@]3(C(=O)c4cccc5cccc3c45)[C@@]23Cc2ccccc2C3=O)cc1` yielded an IC50 [1] of over 62.5 µg/mL, an EC50 [2] of 56 µM and an EC90 [2] of over 100 µM. The EC50 [3] was 9.87 µM, the EC90 [3] was 55.3 µM and the MIC [3] was 100 µM (≈ 47.3 µg/mL).
In the case of `CN1C[C@H](c2ccc(N3CCOCC3)cc2)[C@]2(Cc3ccccc3C2=O)[C@]12C(=O)c1cccc3cccc2c13`, the IC50 [1] is reported as over 62.5 µg/mL, the EC50 [2] is reported as over 100 µM and the EC90 [2] is reported as over 100 µM. It also gave an EC50 [3] of 18.9 µM and an EC90 [3] of over 100 µM.
`COc1ccc(OC)c([C@H]2CN(C)[C@@]3(C(=O)c4cccc5cccc3c45)[C@@]23Cc2ccccc2C3=O)c1` gave an IC50 [1] of over 62.5 µg/mL, an EC50 [2] of 68 µM and an EC90 [2] of over 100 µM. For the same compound, the EC50 [3] was 9.56 µM and the EC90 [3] was over 100 µM.
`CN1C[C@H](c2ccc(N3CCCCC3)cc2)[C@]2(Cc3ccccc3C2=O)[C@]12C(=O)c1cccc3cccc2c13` was tested, and the IC50 [1] was over 62.5 µg/mL, the EC50 [2] was over 100 µM and the EC90 [2] was over 100 µM. For the same compound, the EC50 [3] was 17.8 µM and the EC90 [3] was over 100 µM.
With `CN1C[C@H](c2ccccc2)[C@]2(Cc3ccccc3C2=O)[C@]12C(=O)c1cccc3cccc2c13` the IC50 [1] was over 62.5 µg/mL, the EC50 [2] was over 100 µM and the EC90 [2] was over 100 µM. It also gave an EC50 [3] of over 100 µM and an EC90 [3] of over 100 µM.
Work on `CN1C[C@H](c2ccc(Cl)cc2)[C@]2(Cc3ccccc3C2=O)[C@]12C(=O)c1cccc3cccc2c13` yielded an IC50 [1] of over 62.5 µg/mL, an EC50 [2] of 68.5 µM and an EC90 [2] of over 100 µM. It also gave an EC50 [3] of 6.27 µM, an EC90 [3] of 29.6 µM and an MIC [3] of 50 µM (≈ 23.2 µg/mL).
`CN1C[C@H](c2ccc(Br)cc2)[C@]2(Cc3ccccc3C2=O)[C@]12C(=O)c1cccc3cccc2c13` was tested, and the “Ratio EC50” value [4] was 11, the Ratio [5] was 2.45 and the “Ratio EC50” value [6] was 10.7. It also gave an IC50 [1] of over 62.5 µg/mL, an EC50 [2] of 15.1 µM and an EC90 [2] of over 100 µM. The Ratio [7] was over 8, the Ratio [8] was 4.3 and the EC50 [3] was 2.2 µM. It also gave an EC90 [3] of 10.8 µM, an MIC [3] of 12.5 µM (≈ 6.36 µg/mL) and a Ratio [9] of over 8.
`NCC[C@H](O)C(=O)N[C@@H]1C[C@H](N)[C@@H](O[C@H]2O[C@H](CN)[C@@H](O)[C@H](O)[C@H]2O)[C@H](O)[C@H]1O[C@H]1O[C@H](CO)[C@@H](O)[C@H](N)[C@H]1O` [AMIKACIN] was tested, and the IC50 [1] was over 62.5 µg/mL, the EC50 [2] was 0.12 µM and the EC90 [2] was 0.14 µM. The MIC [2] was 0.16 µM (≈ 0.0937 µg/mL), the EC50 [3] was 0.07 µM and the EC90 [3] was 0.12 µM. It also gave an MIC [3] of 0.16 µM (≈ 0.0937 µg/mL).
`N[C@@H]1CONC1=O` [CYCLOSERINE] gave an IC50 [1] of over 62.5 µg/mL, an EC50 [2] of 24.8 µM and an EC90 [2] of 28 µM. The MIC [2] was 100 µM (≈ 10.2 µg/mL), the EC50 [3] was 23.6 µM and the EC90 [3] was 26.4 µM. The MIC [3] was 100 µM (≈ 10.2 µg/mL).
`CC[C@@H](CO)NCCN[C@@H](CC)CO` [ETHAMBUTOL] showed an IC50 [1] of over 62.5 µg/mL, an EC50 [2] of 3.45 µM and an EC90 [2] of over 200 µM. The EC50 [3] was 1.5 µM, the EC90 [3] was 1.64 µM and the MIC [3] was 6.25 µM (≈ 1.28 µg/mL).
In the case of `NNC(=O)c1ccncc1` [ISONIAZID], the IC50 [1] is reported as over 62.5 µg/mL, the EC50 [2] is reported as 0.19 µM and the EC90 [2] is reported as over 5 µM. The EC50 [3] was 0.13 µM, the EC90 [3] was 0.2 µM and the MIC [3] was 0.31 µM (≈ 0.0425 µg/mL).
`CCc1nc(N)nc(N)c1-c1ccc(Cl)cc1` [PYRIMETHAMINE] showed an IC50 [1] of over 62.5 µg/mL, an EC50 [2] of 25.1 µM and an EC90 [2] of 28 µM. The MIC [2] was 100 µM (≈ 24.9 µg/mL), the EC50 [3] was 24.3 µM and the EC90 [3] was 46.4 µM. It also gave an MIC [3] of 100 µM (≈ 24.9 µg/mL).
In the case of `CO[C@H]1/C=C/O[C@@]2(C)Oc3c(C)c(O)c4c(O)c(c(/C=N/N5CCN(C)CC5)c(O)c4c3C2=O)NC(=O)/C(C)=C\C=C\[C@H](C)[C@H](O)[C@@H](C)[C@@H](O)[C@@H](C)[C@H](OC(C)=O)[C@@H]1C` [RIFAMPIN], the IC50 [1] is reported as over 62.5 µg/mL, the EC50 [2] is reported as 0.02 µM and the EC90 [2] is reported as 0.02 µM. It also gave an MIC [2] of 0.16 µM (≈ 0.132 µg/mL), an EC50 [3] of 0.02 µM and an EC90 [3] of 0.03 µM. The MIC [3] was 0.04 µM (≈ 0.0329 µg/mL).
